The results in this text go back to ChEMBL document CHEMBL1123971, “Synthesis, platelet aggregation inhibitory activity, and in vivo antithrombotic activity of new 1,4-dihydropyridines” (J Med Chem, 1988).

The subject of assay [1] is Felis catus. Description: Effect of intravenous infusion on systolic pressure in Anesthetized cats at a dose of 0.15 mg/kg at 1 min. The format is functional.
Assay [2] concerns Felis catus. Description: Effect of intraperitoneal infusion on diastolic pressure in Anesthetized cats at a dose of 200 mg/kg at 150 min. The format is functional.
In assay [3] the test system is Felis catus. Nature of the assay: Effect of intravenous infusion on diastolic pressure in Anesthetized cats at a dose of 3.0 mg/kg at 20 min. The format is functional.
Assay [4] relates to Felis catus. Description: Effect of intraperitoneal infusion on systolic pressure in Anesthetized cats at a dose of 200 mg/kg at 180 min. Format: functional.
Assay [5] relates to Felis catus. Description: Effect of intraperitoneal infusion on systolic pressure in Anesthetized cats at a dose of 200 mg/kg at 45 min. The format is functional.
Assay [6] concerns Felis catus. Nature of the assay: Effect of intraperitoneal infusion of compound on cardiac frequency in Anesthetized cats at a dose of 200 mg/kg at 120 min. The format is functional, Heart.
For assay [7], the species on record is Cavia porcellus. Description: Chronotropic activity on left and right guinea pig artia (beats/min), at 0 min. The format is functional.
For assay [8], the species on record is Cavia porcellus. Nature of the assay: Chronotropic activity on left and right guinea pig artia (beats/min), at 75 min. Format: functional.
The species named for assay [9] is Cavia porcellus. Nature of the assay: Effect on guinea pig artia (beats/min), at the a dose of 10e-7 M. The format is functional.

On to `CCO/C(O)=C1\C(C)=NC(C)=C(C(=O)OCCN2C(=O)c3ccccc3S2(=O)=O)C1C` (configuration not stated), for which the Arterial pressure with Felis catus [1] is 165 mmHg; with Felis catus [2] it was 80 mmHg; in the assay on Felis catus [3] it was 160 mmHg; in the assay with Felis catus [4], 145 mmHg; in the assay on Felis catus [5], 125 mmHg. The molecule further yielded a Cardiac frequency with Felis catus [6] of 261 beats min-1. The Beats/min is 137 in the assay listed under Cavia porcellus [7], 134 in the assay filed under Cavia porcellus [8] and 181 in the assay listed under Cavia porcellus [9]. For the same molecule, the Control in the assay filed under Cavia porcellus [7] is given as 100%; in the assay listed under Cavia porcellus [8], 97.8%; in the assay filed under Cavia porcellus [9] it was 98.6%.
